In brackets after ≈: the same amount, converted by molar mass.
How the values were obtained:
[1] = Drug metabolism in monkey liver microsomes assessed as N-demethylation; assay type: ADME, Macaca mulatta, Microsome; details: rhesus monkey
[2] = Passive apparent permeability from apical to basolateral side in RRCK cells; assay type: ADME, cell-based, Canis lupus familiaris, MDCKII-LE; details: dog, MDCK
[3] = Drug metabolism in human liver microsomes assessed as N-demethylation; assay type: ADME, Microsome
[4] = target: Cytochrome P450 3A4 (Homo sapiens, UniProt P08684); experiment: Drug metabolism in human liver microsomes assessed as CYP3A4-mediated metabolism; assay type: ADME
[5] = Thermodynamic equilibrium solubility of the compound at pH 7.64 phosphate buffer saline by UPLC analysis; assay type: physicochemical; details: read-out: Therm_solubility
[6] = Drug metabolism in monkey liver microsomes assessed as oxidative metabolite formation; assay type: ADME, Macaca mulatta, Microsome; details: rhesus monkey
[7] = Unbound intrinsic clearance in human liver microsomes assessed as per mg protein; assay type: ADME, Microsome
[8] = Drug metabolism in monkey liver microsomes assessed as oxidation of N-methy pyrazole; assay type: ADME, Macaca mulatta, Microsome; details: rhesus monkey
[9] = Drug metabolism in human liver microsomes assessed as oxidative metabolite formation; assay type: ADME, Microsome
[10] = Drug metabolism in rat liver microsomes assessed as N-demethylation; assay type: ADME, Microsome
[11] = Fraction unbound in rat plasma; assay type: ADME, cell-free
[12] = Drug metabolism in rat liver microsomes assessed as oxidative metabolite formation; assay type: ADME, Microsome
[13] = Drug metabolism in rat liver microsomes assessed as CYP3A4-mediated metabolism; assay type: ADME
[14] = Fraction unbound in human plasma; assay type: ADME, cell-free
[15] = target: T1, Vascular endothelial growth factor receptor 2 (Homo sapiens, UniProt P35968); experiment: Inhibition of VEGFR2 (unknown origin) by cell based assay
T1 sequence (P35968 whole entry): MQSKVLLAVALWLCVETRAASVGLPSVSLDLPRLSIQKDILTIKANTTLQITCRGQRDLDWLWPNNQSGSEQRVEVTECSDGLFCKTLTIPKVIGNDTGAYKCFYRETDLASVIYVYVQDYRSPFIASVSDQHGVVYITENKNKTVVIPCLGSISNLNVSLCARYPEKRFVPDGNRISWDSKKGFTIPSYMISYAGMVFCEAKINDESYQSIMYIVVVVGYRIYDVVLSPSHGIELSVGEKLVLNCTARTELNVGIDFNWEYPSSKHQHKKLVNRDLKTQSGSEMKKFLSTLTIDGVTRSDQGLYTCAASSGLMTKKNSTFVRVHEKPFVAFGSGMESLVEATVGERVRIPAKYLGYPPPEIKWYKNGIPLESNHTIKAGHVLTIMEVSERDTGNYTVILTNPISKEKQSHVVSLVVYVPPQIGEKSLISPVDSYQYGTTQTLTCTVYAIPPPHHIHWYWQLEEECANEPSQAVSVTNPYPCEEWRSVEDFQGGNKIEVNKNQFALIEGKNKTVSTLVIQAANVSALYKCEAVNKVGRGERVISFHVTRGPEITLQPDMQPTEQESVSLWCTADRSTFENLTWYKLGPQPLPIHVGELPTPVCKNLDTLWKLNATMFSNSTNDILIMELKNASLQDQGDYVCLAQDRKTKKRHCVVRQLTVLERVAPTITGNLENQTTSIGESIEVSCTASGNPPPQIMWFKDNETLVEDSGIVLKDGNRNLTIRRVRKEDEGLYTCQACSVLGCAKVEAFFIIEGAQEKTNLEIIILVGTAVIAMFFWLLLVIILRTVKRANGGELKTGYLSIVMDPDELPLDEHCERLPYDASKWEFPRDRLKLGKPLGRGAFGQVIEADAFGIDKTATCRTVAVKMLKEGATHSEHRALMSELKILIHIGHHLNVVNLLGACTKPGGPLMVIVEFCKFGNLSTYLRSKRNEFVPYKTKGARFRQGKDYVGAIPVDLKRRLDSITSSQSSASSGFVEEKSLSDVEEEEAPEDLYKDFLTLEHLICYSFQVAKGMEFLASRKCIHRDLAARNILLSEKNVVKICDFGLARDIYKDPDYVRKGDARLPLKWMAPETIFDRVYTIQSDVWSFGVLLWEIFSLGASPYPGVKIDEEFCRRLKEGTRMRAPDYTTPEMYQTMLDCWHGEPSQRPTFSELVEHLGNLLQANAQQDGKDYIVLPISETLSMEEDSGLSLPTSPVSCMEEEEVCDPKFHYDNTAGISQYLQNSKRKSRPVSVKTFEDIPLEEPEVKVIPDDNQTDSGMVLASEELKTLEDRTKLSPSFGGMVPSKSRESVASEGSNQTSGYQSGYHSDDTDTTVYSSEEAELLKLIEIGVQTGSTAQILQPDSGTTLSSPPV

[16] = Drug metabolism in rat liver microsomes assessed as oxidation of N-methy pyrazole; assay type: ADME, Microsome
[17] = Solubility of compound in fasted state simulated intestinal fluid; assay type: physicochemical
[18] = physchem; details: octanol/water phosphate buffer, pH 7.4
[19] = Solubility of compound in fed state simulated intestinal fluid; assay type: physicochemical
[20] = Drug metabolism in human liver microsomes assessed as N-dealkylation; assay type: ADME, Microsome
[21] = Drug metabolism in human liver microsomes assessed as oxidation of N-methy pyrazole; assay type: ADME, Microsome
[22] = target: T1, Vascular endothelial growth factor receptor 2; experiment: Inhibition of recombinant human VEGFR2 using Ulight-CAGAGAIETDKEYYTVKD as substrate after 60 mins
[23] = Unbound intrinsic clearance in human hepatocytes assessed as per million cells; assay type: ADME, cell-based, Hepatocyte
[24] = Drug metabolism in monkey liver microsomes assessed as CYP3A4-mediated metabolism; assay type: ADME, Macaca mulatta; details: rhesus monkey
[25] = Drug metabolism in rat liver microsomes assessed as N-dealkylation; assay type: ADME, Microsome
[26] = Drug metabolism in monkey liver microsomes assessed as N-dealkylation; assay type: ADME, Macaca mulatta, Microsome; details: rhesus monkey
[27] = target: Non-receptor tyrosine-protein kinase TNK1 (Homo sapiens) (UniProt Q13470); experiment: Inhibition of N-terminal GST tagged human TNK1 (106 to 390 residues) catalytic domain expressed in baculovirus expression system at 1 uM in presence of 1 mM ATP relative to control
Sequence of Non-receptor tyrosine-protein kinase TNK1 (Homo sapiens) (Q13470 whole entry, the tested form may be a part): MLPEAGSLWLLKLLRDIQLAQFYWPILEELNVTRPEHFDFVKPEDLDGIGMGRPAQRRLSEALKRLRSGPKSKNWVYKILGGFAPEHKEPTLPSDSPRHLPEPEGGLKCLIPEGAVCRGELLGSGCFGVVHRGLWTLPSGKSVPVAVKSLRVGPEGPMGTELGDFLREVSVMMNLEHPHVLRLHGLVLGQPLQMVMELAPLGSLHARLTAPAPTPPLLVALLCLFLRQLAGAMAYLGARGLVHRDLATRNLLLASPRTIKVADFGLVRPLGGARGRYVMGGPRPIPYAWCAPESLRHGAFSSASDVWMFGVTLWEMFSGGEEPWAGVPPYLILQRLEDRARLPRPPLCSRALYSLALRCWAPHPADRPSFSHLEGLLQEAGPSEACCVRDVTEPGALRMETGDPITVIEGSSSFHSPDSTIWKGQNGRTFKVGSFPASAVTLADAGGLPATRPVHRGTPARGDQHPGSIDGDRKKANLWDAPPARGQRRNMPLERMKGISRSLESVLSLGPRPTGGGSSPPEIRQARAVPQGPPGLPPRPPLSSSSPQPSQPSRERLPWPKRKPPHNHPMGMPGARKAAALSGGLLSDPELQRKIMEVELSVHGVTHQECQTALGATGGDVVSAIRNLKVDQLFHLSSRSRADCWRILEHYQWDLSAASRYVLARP

[28] = target: T2, Tyrosine-protein kinase JAK2 (Homo sapiens, UniProt O60674); experiment: Inhibition of N-terminal His tagged human JAK2 (826 to 1132 end residues) catalytic domain expressed in baculovirus expression system at 1 uM in presence of 1 mM ATP relative to control
T2 sequence (O60674 whole entry, the tested form may be a part): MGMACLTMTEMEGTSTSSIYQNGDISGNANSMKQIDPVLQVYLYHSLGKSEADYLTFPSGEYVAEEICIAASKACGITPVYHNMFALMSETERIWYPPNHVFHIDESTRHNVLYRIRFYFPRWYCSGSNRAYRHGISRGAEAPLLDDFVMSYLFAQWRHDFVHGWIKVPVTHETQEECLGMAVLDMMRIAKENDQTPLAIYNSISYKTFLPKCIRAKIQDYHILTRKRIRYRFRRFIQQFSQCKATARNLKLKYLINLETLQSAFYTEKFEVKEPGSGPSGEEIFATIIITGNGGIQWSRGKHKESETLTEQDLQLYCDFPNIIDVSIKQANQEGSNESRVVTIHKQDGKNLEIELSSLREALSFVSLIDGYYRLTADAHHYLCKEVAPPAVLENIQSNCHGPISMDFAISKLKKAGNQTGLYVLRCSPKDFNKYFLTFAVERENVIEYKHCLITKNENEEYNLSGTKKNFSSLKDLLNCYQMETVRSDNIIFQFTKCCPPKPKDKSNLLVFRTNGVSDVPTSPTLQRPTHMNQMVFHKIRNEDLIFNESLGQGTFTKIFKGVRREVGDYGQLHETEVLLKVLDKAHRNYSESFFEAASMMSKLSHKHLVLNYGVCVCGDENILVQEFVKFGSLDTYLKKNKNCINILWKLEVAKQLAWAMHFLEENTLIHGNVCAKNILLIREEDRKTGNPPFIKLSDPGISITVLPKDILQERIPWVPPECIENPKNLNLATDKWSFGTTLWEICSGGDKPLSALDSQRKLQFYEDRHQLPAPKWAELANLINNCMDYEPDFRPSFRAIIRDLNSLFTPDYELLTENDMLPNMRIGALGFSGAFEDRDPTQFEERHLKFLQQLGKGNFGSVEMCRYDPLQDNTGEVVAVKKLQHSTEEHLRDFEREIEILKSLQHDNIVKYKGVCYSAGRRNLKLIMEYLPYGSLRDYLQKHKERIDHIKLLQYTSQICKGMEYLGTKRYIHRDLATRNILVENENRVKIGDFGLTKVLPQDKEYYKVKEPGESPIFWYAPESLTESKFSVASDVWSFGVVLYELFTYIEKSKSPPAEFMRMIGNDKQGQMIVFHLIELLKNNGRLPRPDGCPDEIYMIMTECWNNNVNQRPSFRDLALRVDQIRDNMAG

[29] = target: T3, Non-receptor tyrosine-protein kinase TYK2 (Homo sapiens, UniProt P29597); experiment: Inhibition of N-terminal GST tagged human TYK2 (871 to 1187 end residues) catalytic domain expressed in baculovirus expression system at 1 uM in presence of 1 mM ATP relative to control
T3 sequence (P29597 whole entry, the tested form may be a part): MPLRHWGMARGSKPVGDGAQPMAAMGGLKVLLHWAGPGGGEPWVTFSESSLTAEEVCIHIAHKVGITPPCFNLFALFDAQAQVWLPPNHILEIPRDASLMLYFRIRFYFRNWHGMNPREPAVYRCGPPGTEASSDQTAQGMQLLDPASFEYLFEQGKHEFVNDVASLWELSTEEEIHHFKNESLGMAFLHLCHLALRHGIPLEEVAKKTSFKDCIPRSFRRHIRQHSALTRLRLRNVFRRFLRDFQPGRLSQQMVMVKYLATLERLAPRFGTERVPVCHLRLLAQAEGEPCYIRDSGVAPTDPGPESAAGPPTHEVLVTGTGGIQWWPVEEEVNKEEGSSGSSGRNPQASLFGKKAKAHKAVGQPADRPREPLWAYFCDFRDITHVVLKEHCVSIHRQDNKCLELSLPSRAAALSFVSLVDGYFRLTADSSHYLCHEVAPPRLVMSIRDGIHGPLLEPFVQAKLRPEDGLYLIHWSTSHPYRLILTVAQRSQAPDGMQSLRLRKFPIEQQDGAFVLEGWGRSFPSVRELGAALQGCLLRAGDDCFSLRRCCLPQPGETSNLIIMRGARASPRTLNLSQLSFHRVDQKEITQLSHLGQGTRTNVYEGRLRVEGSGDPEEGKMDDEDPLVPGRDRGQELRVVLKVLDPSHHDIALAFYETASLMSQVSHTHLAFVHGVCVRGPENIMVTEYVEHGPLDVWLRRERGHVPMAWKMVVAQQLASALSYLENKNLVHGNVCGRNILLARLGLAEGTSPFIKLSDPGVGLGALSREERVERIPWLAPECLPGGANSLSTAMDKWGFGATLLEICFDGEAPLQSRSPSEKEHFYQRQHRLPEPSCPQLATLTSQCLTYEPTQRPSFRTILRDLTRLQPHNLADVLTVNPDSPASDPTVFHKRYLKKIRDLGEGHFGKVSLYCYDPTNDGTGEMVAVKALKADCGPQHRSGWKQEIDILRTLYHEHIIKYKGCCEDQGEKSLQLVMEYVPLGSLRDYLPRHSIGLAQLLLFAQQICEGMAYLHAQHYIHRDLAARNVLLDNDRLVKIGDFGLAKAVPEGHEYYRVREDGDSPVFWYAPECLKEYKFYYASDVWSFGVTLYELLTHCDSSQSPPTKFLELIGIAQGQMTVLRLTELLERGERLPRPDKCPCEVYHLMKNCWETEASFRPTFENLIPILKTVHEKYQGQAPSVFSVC

[30] = target: Tyrosine-protein kinase JAK3 (Homo sapiens) (UniProt P52333); experiment: Inhibition of N-terminal His tagged human JAK3 (795 to 1124 end residues) catalytic domain expressed in baculovirus expression system at 1 uM in presence of ATP at its Km level relative to control
[31] = target: Non-receptor tyrosine-protein kinase TNK1 (Homo sapiens) (UniProt Q13470); experiment: Inhibition of N-terminal GST tagged human TNK1 (106 to 390 residues) catalytic domain expressed in baculovirus expression system at 1 uM in presence of ATP at its Km level relative to control
[32] = target: T4, Tyrosine-protein kinase JAK1 (Homo sapiens, UniProt P23458); experiment: Inhibition of N-terminal GST tagged human JAK1 (850 to 1154 end residues) catalytic domain expressed in baculovirus expression system at 1 uM in presence of 1 mM ATP relative to control
[33] = target: Aurora kinase A (Homo sapiens) (UniProt O14965); experiment: Inhibition of N-terminal GST tagged full length human AurA (1 to 403 end residues) expressed in baculovirus expression system at 1 uM in presence of ATP at its Km level relative to control
[34] = target: Serine/threonine-protein kinase SIK2 (Homo sapiens) (UniProt Q9H0K1); experiment: Inhibition of N-terminal GST tagged full length human QIK (1 to 926 end residues) expressed in baculovirus expression system at 1 uM in presence of ATP at its Km level relative to control
[35] = target: T2, Tyrosine-protein kinase JAK2; experiment: Inhibition of N-terminal His tagged human JAK2 (826 to 1132 end residues) catalytic domain expressed in baculovirus expression system at 1 uM in presence of ATP at its Km level relative to control
[36] = system: Platelet-derived growth factor receptor alpha (Homo sapiens), P16234 [T674I]; experiment: Inhibition of N-terminal GST tagged human PDGFRalpha (550 to 1089 end residues) catalytic domain T674I mutant expressed in baculovirus expression system at 1 uM in presence of ATP at its Km level relative to control
[37] = target: Macrophage colony-stimulating factor 1 receptor (Homo sapiens) (UniProt P07333); experiment: Inhibition of N-terminal GST tagged human FMS (538 to 972 end residues) cytoplasmic domain expressed in baculovirus expression system at 1 uM in presence of ATP at its Km level relative to control
[38] = target: NUAK family SNF1-like kinase 1 (Homo sapiens) (UniProt O60285); experiment: Inhibition of N-terminal GST tagged full length human Nuak1 (1 to 661 end residues) expressed in baculovirus expression system at 1 uM in presence of ATP at its Km level relative to control
[39] = target: Activated CDC42 kinase 1 (Homo sapiens) (UniProt Q07912); experiment: Inhibition of N-terminal GST tagged human ACK (110 to 476 residues) catalytic domain expressed in baculovirus expression system at 1 uM in presence of ATP at its Km level relative to control
[40] = target: MAP/microtubule affinity-regulating kinase 3 (Homo sapiens) (UniProt P27448); experiment: Inhibition of N-terminal GST tagged full length human MARK3 (1 to 729 end residues) expressed in baculovirus expression system at 1 uM in presence of ATP at its Km level relative to control
[41] = system: Platelet-derived growth factor receptor alpha (Homo sapiens), P16234 [V561D]; experiment: Inhibition of N-terminal GST tagged human PDGFRalpha (550 to 1089 end residues) catalytic domain V561D mutant expressed in baculovirus expression system at 1 uM in presence of ATP at its Km level relative to control
[42] = target: Platelet-derived growth factor receptor beta (Homo sapiens) (UniProt P09619); experiment: Inhibition of N-terminal GST tagged human PDGFRbeta (557 to 1106 end residues) cytoplasmic domain expressed in baculovirus expression system at 1 uM in presence of ATP at its Km level relative to control
[43] = target: MAP/microtubule affinity-regulating kinase 4 (Homo sapiens) (UniProt Q96L34); experiment: Inhibition of N-terminal GST tagged full length human MARK4 (1 to 688 end residues) expressed in baculovirus expression system at 1 uM in presence of ATP at its Km level relative to control
[44] = target: T4, Tyrosine-protein kinase JAK1; experiment: Inhibition of N-terminal GST tagged human JAK1 (850 to 1154 end residues) catalytic domain expressed in baculovirus expression system at 1 uM in presence of ATP at its Km level relative to control
[45] = system: Rattus norvegicus; experiment: Antiarthritic activity in complete freund's adjuvant-induced Lewis rat arthritis model assessed as reduction in paw volume administered orally as once daily dose via gavage treated for 7 consecutive days by plethysmography; assay type: functional, organism-based
[46] = target: Mitogen-activated protein kinase 7 (Homo sapiens) (UniProt Q13164); experiment: Inhibition of N-terminal GST tagged human ERK5 (1 to 398 residues) cytoplasmic domain expressed in Escherichia coli at 1 uM in presence of ATP at its Km level relative to control
[47] = target: Dual specificity mitogen-activated protein kinase kinase 5 (Homo sapiens) (UniProt Q13163); experiment: Inhibition of N-terminal GST tagged full length human MAP2K5 (1 to 448 end residues) co-expressing His tagged MAP3K3/ CDC37/HSP90 expressed in baculovirus expression system at 1 uM in presence of ATP at its Km level relative to control
[48] = target: T3, Non-receptor tyrosine-protein kinase TYK2; experiment: Inhibition of N-terminal GST tagged human TYK2 (871 to 1187 end residues) catalytic domain expressed in baculovirus expression system at 1 uM in presence of ATP at its Km level relative to control
[49] = target: Serine/threonine-protein kinase SIK1 (Homo sapiens) (UniProt P57059); experiment: Inhibition of N-terminal GST tagged full length human SIK (1 to 783 end residues) expressed in baculovirus expression system at 1 uM in presence of ATP at its Km level relative to control
[50] = target: Platelet-derived growth factor receptor alpha (Homo sapiens) (UniProt P16234); experiment: Inhibition of N-terminal GST tagged human PDGFRalpha (550 to 1089 end residues) cytoplasmic domain expressed in baculovirus expression system at 1 uM in presence of ATP at its Km level relative to control
[51] = target: MAP kinase-interacting serine/threonine-protein kinase 2 (Homo sapiens) (UniProt Q9HBH9); experiment: Inhibition of N-terminal GST tagged full length human MNK2 (1 to 465 end residues) expressed in baculovirus expression system at 1 uM in presence of ATP at its Km level relative to control
Sequence of MAP kinase-interacting serine/threonine-protein kinase 2 (Homo sapiens) (Q9HBH9 whole entry, looked up): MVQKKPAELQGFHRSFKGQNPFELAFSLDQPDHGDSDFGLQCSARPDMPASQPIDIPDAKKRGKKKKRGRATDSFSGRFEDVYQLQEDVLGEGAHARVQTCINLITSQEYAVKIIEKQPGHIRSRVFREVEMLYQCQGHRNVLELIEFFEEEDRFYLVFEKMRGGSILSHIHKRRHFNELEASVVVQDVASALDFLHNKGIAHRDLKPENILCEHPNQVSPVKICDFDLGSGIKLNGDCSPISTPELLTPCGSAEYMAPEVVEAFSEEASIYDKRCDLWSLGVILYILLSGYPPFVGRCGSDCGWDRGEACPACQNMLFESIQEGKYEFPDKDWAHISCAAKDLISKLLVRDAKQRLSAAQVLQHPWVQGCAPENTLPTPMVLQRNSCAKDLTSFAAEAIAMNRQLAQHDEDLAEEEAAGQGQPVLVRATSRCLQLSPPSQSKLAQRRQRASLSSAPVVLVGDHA

Which results are given for `Cn1cc(Nc2nccc(N3CC4CC[C@H](C3)N4C(=O)[C@@H]3CC3(F)F)n2)cn1` (single isomer, unassigned) [listing 1 of 2 here]?
Drug metabolism [1]: Metabolite_Detected; Papp A→B [2]: 188 nm/s; Drug metabolism [3]: Metabolite_Detected; Drug metabolism [4]: Metabolite_Detected; solubility thermodynamic [5]: 4.84 mg/mL (≈ 12.4 mM); Drug metabolism [6]: Metabolite_Detected; CL free [7]: < 10 µL/min; Drug metabolism [8]: Metabolite_Detected; Drug metabolism [9]: Metabolite_Detected; Drug metabolism [10]: Metabolite_Detected; fraction unbound [11]: 0.69; Drug metabolism [12]: Metabolite_Detected; Drug metabolism [13]: Metabolite_Detected; fraction unbound [14]: 0.61; IC50 [15]: > 30 µM; Drug metabolism [16]: Metabolite_Detected; solubility [17]: > 7 mg/mL; logD [18]: 1.61; solubility [19]: > 7 mg/mL; Drug metabolism [20]: Metabolite_Detected; Drug metabolism [21]: Metabolite_Detected; IC50 [22]: 1.6 µM; CL free [23]: < 0.6 µL/min; Drug metabolism [24]: Metabolite_Detected; Drug metabolism [25]: Metabolite_Detected; Drug metabolism [26]: Metabolite_Detected

Which inhibition [27] does the source give for `Cn1cc(Nc2nccc(N3CC4CC[C@H](C3)N4C(=O)[C@@H]3CC3(F)F)n2)cn1` (single isomer, unassigned) [listing 2 of 2 here] here?
The inhibition was 64%.

And the inhibition [28]?
The inhibition was 94%.

What about the inhibition [29] of the same molecule?
The inhibition was 98%.

And the inhibition [30]?
Its inhibition is 92%.

What about the inhibition [31] of the same molecule?
Its inhibition is 94%.

What about the inhibition [32] of the same molecule?
Its inhibition is 96%.

What about the inhibition [33] of the same molecule?
The inhibition was 62%.

What about the inhibition [34] of the same molecule?
Its inhibition is 91%.

And the inhibition [35]?
Its inhibition is 101%.

What about the inhibition [36] of the same molecule?
The inhibition was 78%.

What about the inhibition [37] of the same molecule?
The inhibition was 59%.

And the inhibition [38]?
The inhibition was 60%.

And the inhibition [39]?
Its inhibition is 82%.

And the inhibition [40]?
The inhibition was 50%.

And the inhibition [41]?
The inhibition was 60%.

What about the inhibition [42] of the same molecule?
Its inhibition is 66%.

And the inhibition [43]?
Its inhibition is 59%.

What about the inhibition [44] of the same molecule?
The inhibition was 101%.

And the Activity [45]?
Its Activity is “Dose-dependent effect”.

What about the inhibition [46] of the same molecule?
The inhibition was 63%.

And the inhibition [47]?
Its inhibition is 70%.

And the inhibition [48]?
The inhibition was 101%.

And the inhibition [49]?
Its inhibition is 77%.

What about the inhibition [50] of the same molecule?
The inhibition was 70%.

What about the inhibition [51] of the same molecule?
The inhibition was 68%.
